{"source": "paper PMC8119482", "about": "“A novel dual HDAC and HSP90 inhibitor, MPT0G449, downregulates oncogenic pathways in human acute leukemia in vitro and in vivo” (Oncogenesis, 2021)", "target": "T1, HDAC6 (Homo sapiens, UniProt Q9UBN7)", "T1 sequence (Q9UBN7 1-1215)": "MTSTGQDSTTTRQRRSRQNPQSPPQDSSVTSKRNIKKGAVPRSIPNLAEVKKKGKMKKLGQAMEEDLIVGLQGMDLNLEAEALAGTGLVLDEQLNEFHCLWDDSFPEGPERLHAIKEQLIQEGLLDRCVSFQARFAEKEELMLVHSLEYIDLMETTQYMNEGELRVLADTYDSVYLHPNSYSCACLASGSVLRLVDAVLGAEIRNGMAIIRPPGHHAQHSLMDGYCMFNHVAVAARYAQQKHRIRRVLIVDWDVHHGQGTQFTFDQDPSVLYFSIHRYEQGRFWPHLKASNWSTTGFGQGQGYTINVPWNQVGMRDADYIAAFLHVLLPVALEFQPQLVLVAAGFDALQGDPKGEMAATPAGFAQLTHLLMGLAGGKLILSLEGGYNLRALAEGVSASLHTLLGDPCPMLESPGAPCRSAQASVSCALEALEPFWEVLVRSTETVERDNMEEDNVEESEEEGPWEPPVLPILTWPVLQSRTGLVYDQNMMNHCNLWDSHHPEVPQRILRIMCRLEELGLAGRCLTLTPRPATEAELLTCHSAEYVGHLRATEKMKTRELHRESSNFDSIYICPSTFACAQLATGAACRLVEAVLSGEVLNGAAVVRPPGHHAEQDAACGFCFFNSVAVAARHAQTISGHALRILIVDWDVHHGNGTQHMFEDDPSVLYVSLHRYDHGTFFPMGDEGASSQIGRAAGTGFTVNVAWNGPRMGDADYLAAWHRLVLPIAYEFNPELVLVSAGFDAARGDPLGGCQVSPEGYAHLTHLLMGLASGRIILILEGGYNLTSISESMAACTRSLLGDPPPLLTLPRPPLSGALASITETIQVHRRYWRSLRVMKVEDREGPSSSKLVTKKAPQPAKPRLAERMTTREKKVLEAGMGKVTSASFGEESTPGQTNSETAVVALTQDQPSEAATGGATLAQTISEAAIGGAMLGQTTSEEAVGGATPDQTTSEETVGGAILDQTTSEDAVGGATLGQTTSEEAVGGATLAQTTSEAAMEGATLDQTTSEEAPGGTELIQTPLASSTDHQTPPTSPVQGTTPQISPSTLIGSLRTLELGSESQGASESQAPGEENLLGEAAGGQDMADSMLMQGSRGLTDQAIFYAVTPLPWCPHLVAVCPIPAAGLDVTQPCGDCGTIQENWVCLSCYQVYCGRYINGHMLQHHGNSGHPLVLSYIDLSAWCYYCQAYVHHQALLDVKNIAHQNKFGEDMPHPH", "test": "HDAC isoform activity assay (Reaction Biology Corp.); values not shown in main text", "format": "biochemical", "data": [{"compound": "CC(C)c1cc(C(=O)N(C)c2ccc(NC(=O)CCCCCCCC(=O)NO)cc2)c(O)cc1O", "note": "[compound 26, MPT0G449]", "values": [{"measurement": "HDAC isoform activity assay (Reaction Biology Corp.); values not shown in main t", "value": "HDAC6 was selected because MPT0G499 exhibited the most potent inhibition."}]}]}
